Earlier results on 2 compounds are cited in patent US20110201579A1, “Method of Improving the Overall Health of a Patient by Application of Pregnenolone” (priority 2010, published 2011).

For data set [1] the following is noted: individuals with rheumatoid arthritis.
The conditions of data set [2]: rodents.
The conditions of data set [3]: some people.

Take `C[C@]12CCC(=O)C=C1CC[C@@H]1[C@@H]2[C@@H](O)C[C@@]2(C)[C@H]1CC[C@]2(O)C(=O)CO` [cortisol]: in data set [1], the “improvement of rheumatoid arthritis” value is “outstanding short-term improvements”. Regarding `CC(=O)[C@H]1CC[C@H]2[C@@H]3CC=C4C[C@@H](O)CC[C@]4(C)[C@H]3CC[C@]12C` [pregnenolone, Pregnenolone], the memory result in data set [2] was “one of the most effective and powerful memory boosters”. In addition, the “energy, vision, memory, clarity of thinking, wellbeing, sexual enjoyment or libido” value in data set [3] is “improves energy, vision, memory, clarity of thinking, wellbeing, and often sexual enjoyment or libido”.
